Where “and” joins values, the source holds several entries; their conditions need not be identical. Equal values may be shown once.

In one data set the target is T1, PPM1D1–420 (Homo sapiens, UniProt O15297).
T1 construct: PPM1D1–420 was PCR-amplified from the synthesized gene with BsaI sites; His(6)-SUMO (N, cleaved yes); made in house; host or cells: E. coli BL21 (DE3)
T1 sequence (O15297 1-420): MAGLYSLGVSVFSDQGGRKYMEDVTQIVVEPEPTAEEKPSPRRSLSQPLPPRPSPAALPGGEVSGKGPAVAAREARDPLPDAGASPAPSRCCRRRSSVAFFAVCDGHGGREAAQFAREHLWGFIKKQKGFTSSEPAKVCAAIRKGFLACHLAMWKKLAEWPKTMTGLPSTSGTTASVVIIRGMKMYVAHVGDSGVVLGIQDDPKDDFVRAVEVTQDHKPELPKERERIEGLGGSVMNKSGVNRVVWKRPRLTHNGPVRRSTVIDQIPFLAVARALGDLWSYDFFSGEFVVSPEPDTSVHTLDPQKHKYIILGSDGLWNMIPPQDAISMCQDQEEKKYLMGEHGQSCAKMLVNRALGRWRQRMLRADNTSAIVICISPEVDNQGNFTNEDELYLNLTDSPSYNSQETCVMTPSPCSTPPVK
The data set can be described thus: p38 MAPK enzymatic assay (LC/MS, dephosphorylation of T180). Format: biochemical. The following applies: for P38 Assay, signal relative to 0 nM GSK (=100): PPM1D1-420, individual runs, listed as GSK. Here is the method:
(§1) To generate the double phosphorylated form of p38 MAPK for the LC/MS enzymatic PPM1D assay, 20 µM p38 MAPK was incubated with 100 nM MKK6 in 50 mM HEPES pH 7.4, 10 mM ATP, 40 mM MgCl2, and 100 µM TCEP at RT for 2 h. The reaction mixture was diluted 2-fold with 20 mM HEPES pH 7.4, 300 mM NaCl, 100 µM TCEP, and 1 mM MgCl2 and passed over a Superdex 200 26/600 column equilibrated with 20 mM HEPES pH 7.4, 150 mM NaCl, 100 µM TCEP, and 1 mM MgCl2 to remove excess ATP and MKK6 from the phosphorylated p38 MAPK (p38PP) protein. The protein was concentrated and stored in aliquots for single time usage at −80 °C.
(§2) The enzymatic activity of the PPM1D constructs was measured by quantifying the dephosphorylation of the substrate protein p38PP by LC/MS. Assays were run in 384-well plates (Axygen; #P-384-120SQ-C) in a final volume of 80 µL per well. The buffer consisted of 20 mM HEPES, 20 mM NaCl, 20 mM MgCl2 and 0.1 mM TCEP, at a pH of 7.5. The reaction was initiated by addition of the p38PP substrate to a solution containing 10 nM PPM1D to a final concentration of 300 nM for p38PP. The plate was then incubated at room temperature and the reaction quenched after 15 min increments with formic acid to a final concentration of 6% (v/v) up to 120 min. For IC50 measurements, the GSK2830371 compound was pre-incubated with the PPM1D constructs in a 2% DMSO-containing buffer for 10 min prior to the addition of the substrate and the reactions were quenched after 2 h. In both experiments, BSA was added to a final concentration of 0.2 µM during the quench step as a carrier protein and injection control for the LC/MS. The plate was then sealed and spun down at 1500 × g for 1 min prior to LC/MS analysis. Plates were analyzed within the same day of the quench step.
(§3) Substrate and product detection was achieved by multiple-reaction monitoring (MRM) using a Waters Acquity UPLC chromatography system connected to an Xevo TQ-XS mass spectrometer (Waters, Milford, MA). Source parameters were set as follows: polarity ES+, capillary 2.0 kV, cone voltage, 50 V; collision energy, 5 V; cone gas flow, 200 L/h; collision gas flow, 0.16 mL/min; source temperature, 150 °C; desolvation temperature, 500 °C; and desolvation gas flow, 800 L/h. Analytes were separated using an Agilent PLRP-S Reversed-Phase column (5 µm; 2.1 × 50 mm, 300 Å Agilent Technologies, Santa Clara, CA) at 60 °C. Sample storage temperature was set to 15 °C. Mobile phases consisted of 0.1% (v/v) formic acid (Millipore EMSURE) in LC/MS grade water (JTBaker) and 0.1% v/v formic acid in acetonitrile (Honeywell). Initial column conditions were set to […]. Proteins were eluted using a 1.5 min gradient of 5–98% acetonitrile at 0.4 ml/min. MassLynx and TargetLynx software (Waters, version 4.2) were used for sample acquisition and data analysis, respectively. Analytes were quantified by integration of peak areas under the curve using the transitions 941.10 to 941.05 m/z for P38PP (substrate) and 939.10 to 939.09 m/z for P38P (product). Areas were normalized for instrumental variation by dividing by the BSA peak area (1209.23 to 1209.2 m/z transition) measured in the same well.

The target in a further data set is T2, PPM1DΔhinge (Homo sapiens, UniProt O15297, DEL155-163/G166S/M164G/T165G).
T2 construct: PPM1D1–154-GGS-167–420 (PPM1D∆hinge); His(6)-SUMO (N, cleaved yes); made in house; host or cells: E. coli BL21 (DE3)
T2 sequence (O15297 with tags, fused parts or gaps DEL155-163/M164G/T165G/G166S): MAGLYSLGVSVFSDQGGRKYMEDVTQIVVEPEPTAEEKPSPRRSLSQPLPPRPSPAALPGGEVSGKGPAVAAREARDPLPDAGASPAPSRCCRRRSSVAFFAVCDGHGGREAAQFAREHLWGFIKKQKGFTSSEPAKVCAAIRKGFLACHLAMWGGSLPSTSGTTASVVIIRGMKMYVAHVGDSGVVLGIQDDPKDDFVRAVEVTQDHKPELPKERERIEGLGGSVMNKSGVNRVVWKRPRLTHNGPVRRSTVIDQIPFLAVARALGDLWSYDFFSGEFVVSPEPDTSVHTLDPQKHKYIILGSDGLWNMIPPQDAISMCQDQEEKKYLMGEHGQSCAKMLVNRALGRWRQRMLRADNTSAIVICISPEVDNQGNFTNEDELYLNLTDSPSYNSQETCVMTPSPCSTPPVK
Described as above. Format: biochemical. As to conditions: for P38 Assay, signal relative to 0 nM GSK (=100): PPM1DΔHinge, individual runs, listed as GSK. Here is the method:
as §1, §2, §3

The next data set is described as follows: Solubility. Format: physicochemical. The following applies: precluded ITC.

The compound `Cc1ncc(Cl)cc1NCc1ccc(C(=O)N[C@@H](CC2CCCC2)C(=O)NC2CC2)s1` [GSK2830371] displayed an IC50 on PPM1D1–420 (PPM1D1–420, full length p38 MAPK substrate, LC/MS) of about 6 nM. Besides, the “P38 Assay, signal relative to 0 nM GSK (=100)” value was 93.1001 and 100 and 88.922 at PPM1D1–420 ([GSK] 0.49 nM); 86.1215 and 81.7339 and 63.3381 at PPM1D1–420 ([GSK] 0.98 nM); 86.7639 and 71.6152 and 63.7723 at PPM1D1–420 ([GSK] 1.95 nM); 51.5439 and 51.2694 and 46.219 on PPM1D1–420 ([GSK] 3.9 nM); 29.2083 and 28.1523 and 24.0173 on PPM1D1–420 ([GSK] 7.8 nM); 16.4584 and 13.8278 and 11.5309 on PPM1D1–420 ([GSK] 15.6 nM). Also, the “P38 Assay, signal relative to 0 nM GSK (=100)” value was 11.2856 and 7.234 and 5.456 at PPM1D1–420 ([GSK] 31.2 nM); 6.81 and 5.822 and 3.842 at PPM1D1–420 ([GSK] 62.5 nM); 6.3041 and 6.187 and 2.5614 on PPM1D1–420 ([GSK] 125 nM); 4.442 and 3.236 and 2.029 at PPM1D1–420 ([GSK] 250 nM); 3.225 and 4.879 and 3.8956 on PPM1D1–420 ([GSK] 500 nM); 100.358 and 104.09 and 99.8488 at PPM1DΔhinge ([GSK] 1.953 nM). Also, the “P38 Assay, signal relative to 0 nM GSK (=100)” value on PPM1DΔhinge ([GSK] 3.906 nM) was 98.4717 and 98.7741 and 94.5709; on PPM1DΔhinge ([GSK] 7.813 nM), 97.8741 and 98.6995 and 87.7716; on PPM1DΔhinge ([GSK] 15.625 nM), 91.5216 and 88.9322 and 63.2104; at PPM1DΔhinge ([GSK] 31.25 nM) it was 84.0592 and 89.4059 and 56.2735; on PPM1DΔhinge ([GSK] 62.5 nM) it was 71.608 and 76.249 and 61.6546; at PPM1DΔhinge ([GSK] 125 nM) it was 62.6262 and 54.2715 and 52.5307. The “P38 Assay, signal relative to 0 nM GSK (=100)” value was 49.6072 and 48.4313 and 45.7898 at PPM1DΔhinge ([GSK] 250 nM); 38.0355 and 40.9669 and 36.3652 on PPM1DΔhinge ([GSK] 500 nM); 32.2867 and 33.3807 and 27.8112 on PPM1DΔhinge ([GSK] 1000 nM). Besides, the “increase of IC50 in p38 MAPK assay upon hinge deletion” value on PPM1DΔhinge (PPM1DΔhinge versus PPM1D1–420) is 100 fold. In addition, in the data set “Solubility”, the “solubility (in words)” value is listed as “relatively low solubility”.

The term IC50 denotes the point on the concentration scale where inhibition reaches its midpoint.

The values are drawn from publication PMC9246869, “Allosteric inhibition of PPM1D serine/threonine phosphatase via an altered conformational state” (Nature Communications, 2022).
